Source: US11248234B2, “Herbicide-resistant hydroxyphenylpyruvate dioxygenases” (BASF SE, priority 2015, dated 2022)

Assays:
Assay in all cases: Germination assay in 48-well plates (tolerance factor)
Format in all cases: in vivo, Arabidopsis thaliana
Settings in all cases: plant growth IC50 transgenic / wildtype; mean of 5 T2 events; non-transgenic set to 1
[1] = system: Arabidopsis overexpression line SoHPPD (SEQ ID NO: 2)
Method: (§1) Tolerance to HPPD-inhibiting herbicides can also be assessed in Arabidopsis. In this case transgenic Arabidopsis thaliana plants are assayed for improved tolerance to HPPD-inhibiting herbicides in 48-well plates (germination assay). Seeds are surface sterilized by stirring for 5 min in ethanol+water (70+30 by volume), rinsing one time with ethanol+water (70+30 by volume) and two times with a sterile, deionized water. The seeds are resuspended in 0.1% agar dissolved in water (w/v). Four to five seeds per well are plated on solid nutrient medium consisting of half-strength Murashige Skoog nutrient solution, pH 5.8 (Murashige and Skoog (1962) Physiologia Plantarum 15: 473-497). Compounds are dissolved in dimethylsulfoxid (DMSO) and added to the medium prior solidification (final DMSO concentration 0.1%). Multi well plates are incubated in a growth chamber at 22° C., 75% relative humidity and 110 μmol Phot*m−2*s−1 with 14:10 h light:dark photoperiod. Growth inhibition is evaluated seven to ten days after seeding in comparison to wild type plants. Tolerance factor is calculated by dividing the plant growth IC50 value of transgenic plants containing a HPPD sequence by that of wildtype plants.

[2] = system: Arabidopsis overexpression line SoHPPD I419V (short)
Method: as §1

[3] = system: Arabidopsis overexpression line SoHPPD I455V
Method: as §1

[4] = system: Arabidopsis overexpression line SoHPPD Q317H (short)
Method: as §1

[5] = system: Arabidopsis overexpression line SoHPPD_F363I (short)
Method: as §1

`Cc1c(C(=O)c2cnn(C)c2O)ccc(S(C)(=O)=O)c1C1=NOCC1` [Inhibitor 1, [3-(4,5-dihydroisoxazol-3-yl)-2-methyl-4-methylsulfonyl-phenyl]-(5-hydroxy-1-methyl-pyrazol-4-yl)methanone] gave a Tolerance factor [1] of 92, a Tolerance factor [2] of 100 and a Tolerance factor [3] of 7. It also gave a Tolerance factor [4] of 100 and a Tolerance factor [5] of 1000.
